According to patent US8247572B2, “Facilitated transport of bisphosphonates by vitamin C” (Duke University, priority 2005, dated 2012):

How the values were obtained:
[1] = test system: primary human chondrocytes; assay: Ascorbic acid transport assay in isolated primary human chondrocytes; type: cell-based; settings: for suppression of L-14C-Asc transport by unlabeled competitor: 2 mM competitor, versus no competitor; for ability to compete with L-14C-Asc for transport: 2 mM unlabeled competitor
Description: Ascorbic Acid Transport Assay in Isolated Primary Human Chondrocytes. AA transport was measured using a modified version of the uptake assay published by Wilson and Dixon (J. X. Wilson, S. J. Dixon, High-Affinity Sodium-Dependent Uptake of Ascorbic Acid by Rat Osteoblasts, J. Mem. Biol. 111 (1989) 83-91). Primary human chondrocytes were seeded at a density of 4.5×10^5 cells/well on a 6-well plate (or 2.25×10^5 cells/well on a 12-well plate for the kinetic experiments). Prior to the transport assay, cells were plated for 48 hours in DMEM/F12, containing 10% FCS but no AA. Cells were washed in transport buffer containing: 134 mM NaCl, 5.4 mM KCl, 1.8 mM CaCl2, 0.8 mM MgSO4, 10 mM D-glucose, 20 mM HEPES, pH 7.3 with NaOH. […] The standard AA transport assay conditions were 37° C./5% CO2 for 10 minutes. AA uptake was terminated by washing the cells four-times in ice-cold PBS. The cells were lysed with Puregene Cell Lysis Solution (Gentra Systems) and scintillation counting was performed in Uniscint BD (National Diagnostics).
In experiments with sodium free transport buffer, iso-osmotic concentrations of LiCl were substituted for NaCl. […]

[2] = test system: primary human chondrocytes; assay: BP / BP-AA uptake assay in chondrocyte monolayer (HPLC); type: cell-based
Description: Uptake Assay Methods. Primary human chondrocytes were seeded at a density of 4.5×10^5 cells for 48 hours. The cells were washed with ascorbic acid transport buffer. The free bisphosphonate (BP) and the bisphosphonate conjugated to ascorbic acid (BP-AA) were solubilized in ascorbic acid transport buffer at 10 mM concentration. The cells were incubated with either the free BP or the BP-AA for an hour at 37° C./5% CO2. The cells were washed 4× with ice-cold PBS to remove any extracellular BP or BP-AA. The cells were then lysed in 250 μl ddH2O for 15 minutes on ice, sonicated for 5 minutes, and then scraped from the culture dish. The lysate was then analyzed by ion pair reverse phase HPLC with UV and electrochemical detection (ECD) as described below.
HPLC Methods. Ascorbic acid, free and conjugated, and risedronate analogs were determined by a modification of an ion pair reverse phase high-performance liquid chromatography method initially described by Vallano et al. (Vallano, P. T., Shugarts, S. B., Kline, W. F., Woolf, E. J., and Matuszewski, B. K., Determination of Risedronate in Human Urine by Column-Switching Ion-Pair High-Performance Liquid Chromatography with Ultraviolet Detection. J Chromatogr B Analyt Technol Biomed Life Sci, 2003, 794:23-33). The column consisted of a C18 packing, the mobile phase contained 8% acetonitrile and 92% of 0.005M Q8 (1-octyltriethylammonium phosphate [Regis Technologies, Morton Grove, Ill.]) and 1 mM etidronate (1-hydroxyethylidene-1,1-diphosphonic acid [Strem Chemicals, Newburyport, Mass.]) in a sodium phosphate buffer, pH 6.2, and was pumped at […]. The injection volume was 100 μl and detection was at 262 nm (UV) and 0.7V (ECD).

[3] = test system: primary human chondrocytes; assay: Dehydroascorbate transport assay in isolated primary human chondrocytes; type: cell-based; settings: for ability to compete with L-14C-DHA transport: 2 mM unlabeled competitor; for increase in L-14C-DHA uptake versus 21% oxygen tension: 24 hours; for inhibition of DHA transport: 0.1 mM inhibitor, p<0.001; for mode of inhibition of L-14C-DHA transport (Dixon plot): data not shown
Description: Dehydroascorbate Transport Assay in Isolated Primary Human Chondrocytes. DHA transport was measured using a modified version of the uptake assay published by Wilson and Dixon (Wilson J X, Dixon S J. High-Affinity Sodium-Dependent Uptake of Ascorbic Acid by Rat Osteoblasts. J. Mem. Biol. 1989; 111:83-91). Primary human chondrocytes were seeded at a density of 4.5×10^5 cells/well on a 6-well plate. Prior to the transport assay, cells were plated for 48 hours in DMEM/F12, containing 10% FCS but no AA or DHA. Cells were washed in transport buffer containing: 134 mM LiCl, 5.4 mM KCl, 1.8 mM CaCl2, 0.8 mM MgSO4, 20 mM HEPES, pH 7.3 with KOH. DHA uptake was assessed by incubating the chondrocytes in transport buffer containing 189 μM L-^14C-dehydroascorbate (L-^14C-DHA). […] The standard DHA transport assay conditions were 37° C./5% CO2/21% O2 for 10 min. DHA uptake was terminated by washing the cells four-times in ice-cold PBS. […] The total pmol of L-^14C-DHA transported was calculated using the total dpm of L-^14C-DHA transported and the specific activity of the radiolabel.
Matrix Biol. 2002; 21:175-184). Stock solutions of different unlabeled DHA forms were generated in the same manner as the L-^14C-DHA. […]

[4] = test system: human articular cartilage explants; settings: 50 µM
Description: Cartilage explants were isolated from human knee articular cartilage surgical waste tissues at the time of knee replacement surgery (n=5). Cartilage was harvested from non-lesioned areas, using a 2 mm diameter micro dissecting trephine (Biomedical Research Instruments, Rockville, Md.). A group of five cartilage plugs was pooled to constitute one sample. Each sample was paired with a corresponding sample from the same specimen and the same sites. The cartilage plugs were weighed and then transferred to a 24-well plate, containing 1 ml wash media (described in the chondrocyte isolation procedure). The cartilage plugs were incubated in 1 ml DMEM/F12 (Gibco, Grand Island, N.Y.) with 10% FCS (Gibco) and no AA for 48 hours at 37° C./5% CO2, prior to the procedures below.
The cartilage explants were washed with PBS and half of the samples were transferred to 1.5 ml centrifuge tubes with a drop of PBS. The tubes were frozen in liquid nitrogen for three minutes and thawed at 37° C. for five minutes. This freeze/thaw procedure was performed for a total of three cycles. The dead explants were transferred back to the 24-well plates.
Explant Ascorbic Acid Transport Assay. […] Samples were processed to isolate the cells from the matrix fraction (see Intracellular versus Extracellular AA) or counted for radioactivity by transferring the whole explants to glass scintillation vials and solubilizing the samples overnight at room temperature in 0.5 ml Solulene 350 (Perkin Elmer Life and Analytical Services, Boston, Mass.). Hionic Fluor scintillation fluid (5 ml, Perkin Elmer Life and Analytical Services) was added, and radioactivity was counted in the live and dead explants, using a scintillation counter.
Explant isolation, explant treatments, and the explant AA transport assay (through the PBS wash step) were performed, followed by the chondrocyte isolation procedure described above. After the cell fraction was isolated from the matrix, the cells were washed, then 15 μl of the cells were counted on a hemacytometer, in order to determine the total number of cells in the cell fraction. […]

[5] = 100 μM inhibitor, 10 minutes, p<0.001

`O=C1C(CC[S+]([O-])c2ccccc2)C(=O)N(c2ccccc2)N1c1ccccc1` (stereo not shown) [sulfinpyrazone] showed an inhibition at 100 µM ([1]; Homo sapiens, Chondrocyte, 10 min, 100 μM inhibitor, 10 minutes, p<0.001, read-out: inhibition of L-14C-Asc transport) of about 65% and an inhibition at 100 µM ([2]; Homo sapiens, Chondrocyte, 0.75 h, 100 μM sulfinpyrazone, 45 minutes in advance of 10 mM BP-AA) of about 75%.
For `O=C1O[C@H]([C@@H](O)CO)C([O-])=C1O.[Na+]` [Na L-Asc, Na L-ascorbate], the “ability to compete with L-14C-DHA transport” value ([3]; 10 min) was “able to effectively compete” and the “suppression of L-14C-Asc transport by unlabeled competitor” value ([1]; 10 minutes, p<0.001) was 75%.
With L-^14C-dehydroascorbate [L-^14C-DHA] the “increase in L-14C-DHA uptake versus 21% oxygen tension” value ([3]; 2.5% oxygen, absence of glucose) was 1.6 fold, the “increase in L-14C-DHA uptake versus 21% oxygen tension” value ([3]; 5% oxygen) was “no increase” and the “14C-DHA Uptake (change versus 21% oxygen tension)” value ([3]; O2 tension 5%, 24 hrs) was “No change”.
With `C=C1[C@@H](C)[C@H]2[C@H](Cc3ccccc3)NC(=O)[C@]23OC(=O)/C=C/[C@H](O)CCC[C@@H](C)C/C=C/[C@H]3[C@@H]1O` [cytochalasin B] the “inhibition of DHA transport” value ([3]; 10 min) was 95% and the “inhibition of L-14C-Asc transport” value [1, 5] was 40%.
With `O=C1O[C@H]([C@H](O)CO)C(O)=C1O` [D-Asc, D-isoascorbic acid] the “ability to compete with L-14C-DHA transport” value ([3]; 10 min) was “able to effectively compete”, the “mode of inhibition of L-14C-DHA transport (Dixon plot)” value [3] was “non-competitive inhibitors” and the “ability to compete with L-14C-Asc for transport” value (“ability … for transport” for short) ([1]; 10 minutes) was “unable to effectively compete”.
`C[C@H]1C/C=C/[C@H]2[C@@H]3O[C@]3(C)[C@@H](C)[C@H]3[C@H](Cc4ccccc4)NC(=O)[C@]32OC(=O)O/C=C/[C@@](C)(O)C1=O` [cytochalasin E] was tested, and the “inhibition of DHA transport” value ([3]; 10 min) was 40% and the “inhibition of L-14C-Asc transport” value [1, 5] was 35%.
In the case of `O=C(CCC(=O)OCC(O)C1OC(=O)C(O)=C1O)Nc1ccc(NC(P(=O)(O)O)P(=O)(O)O)nc1` [BP-AA, 6-O-{N-[6-[(bisphosphonomethyl)amino]pyridin-3-yl]}succinyl-L-ascorbic acid], the “transport of BP-AA versus AA alone” value ([2]; 10 mM BP-AA, one hour) is reported as 143 fold, the “amount gaining entry to chondrocytes in monolayer” value ([2]; 10 mM, one hour, 37° C.) is reported as 2281 nmol/mg protein and the inhibition at 10000 µM ([2]; Homo sapiens, Chondrocyte, 1 h, 10 mM BP-AA, one hour, no sodium, read-out: inhibition of BP-AA uptake in the absence of sodium) is reported as 50%.
In the case of Na L-dehydroascorbate [Na L-DHA], the “ability to compete with L-14C-DHA transport” value ([3]; 10 min) is reported as “able to effectively compete”.
With `O=C1OC(C(O)CO)C(=O)C1=O` [DHA, L-dehydroascorbate] the “ability to compete with L-14C-DHA transport” value ([3]; 10 min) was “able to effectively compete”, the “increase in DHA transport versus 21% oxygen tension” value ([3]; human, 10 min, 189 µM, pH 7.3) was 2.7 fold and the “increase of DHA transport versus 21% oxygen tension” value ([3]; human, 10 min, 189 µM, pH 7.3) was 3.2 fold. For the same compound, the “increase of DHA transport versus 21% oxygen tension, mean” value ([3]; human, 10 min, 189 µM, pH 7.3) was 3.5 fold, the “passive diffusion of DHA as share of transport under optimized conditions” value ([3]; human, 10 min, 189 µM, pH 7.3) was 11% and the “ability … for transport” value ([1]; 10 minutes) was “unable to effectively compete”.
With Na D-dehydroascorbate [Na D-DHA] the “ability to compete with L-14C-DHA transport” value ([3]; 10 min) was “unable to compete”.
With `O=C1O[C@@H]([C@H](O)CO)C(=O)C1=O` [D-DHA, D-dehydroascorbate] the “ability to compete with L-14C-DHA transport” value ([3]; 10 min) was “able to effectively compete”.
With `O=C1O[C@H]([C@H](O)CO)C([O-])=C1O.[Na+]` [Na D-Asc, Na D-isoascorbate] the “ability to compete with L-14C-DHA transport” value ([3]; 10 min) was “able to effectively compete” and the “ability … for transport” value ([1]; 10 minutes) was “unable to effectively compete”.
For `O=C1O[C@H]([C@@H](O)CO)C(O)=C1O` [L-Asc, L-ascorbic acid], the “ability to compete with L-14C-DHA transport” value ([3]; 10 min) was “able to effectively compete”, the “mode of inhibition of L-14C-DHA transport (Dixon plot)” value [3] was “non-competitive inhibitors” and the “vMax for AA transport in chondrocytes” value ([1]; 0-500 μM L-14C-Asc, Michaelis-Menten) was 148+/−35 pmol L-^14C-Asc/10^6 cells/10 minutes. For the same compound, the Km ([1]; 0-500 μM L-14C-Asc, Michaelis-Menten, read-out: Km for AA transport in chondrocytes) was 179 µM, the “concentration of unlabeled L-Asc at which the transporter is fully saturated” value ([1]; 200 μM L-14C-Asc, 10 minutes) was “approximately 1000 μM” and the “suppression of L-14C-Asc transport by unlabeled competitor” value ([1]; 10 minutes, p<0.001) was “approximately 60%”. The “calculated intracellular concentration of total AA, deep zone cells” value [4] was 45 mM, the “calculated intracellular concentration of total AA, middle zone cells” value [4] was 51 mM and the “calculated intracellular concentration of total AA, superficial zone cells” value [4] was 67 mM.
